pIC50: −log10 of the molar value. Values joined by “and” are separate entries in the source; they are usually repeats but may differ in a detail not shown here. Identical values can stand only once. Counter-ions that a name gives are not always drawn. Marks after values point to notes of the source that are not given here.
What was measured:
[1] = Toxicity in normal nude mice; type: in vivo, athymic nude mice; details: for Number of mice died: QD × 4, i.p.; for decrease in lymphocytes: EpoB 0.6 mg/kg or dEpoB 25 mg/kg, QDx4, i.p., preliminary; for mice died / survived: desoxyepothilone B 25 mg/kg QDx4 i.p.; for mice died of toxicity: epothilone B 0.6 mg/kg QDx4 i.p.
Method: For in vivo studies, paclitaxel in Cremophor-EtOH was further diluted with DMSO as needed. Vinblastine sulfate (Velban) (Eli Lilly & Co. Indianapolis, Ind.), and doxorubicin or adriamycin HCl (DX or Adr) (Pharmacia, Columbus, Ohio) in saline were diluted with DMSO as needed. DMSO was used as a vehicle for epothilones. Each mouse received ≦40 μL DMSO in all experiments.
The toxicity of EpoB and dEpoB was compared in normal athymic nude mice on the daily i.p. schedule. EpoB at 0.6 mg/kg, QDX4, i.p. led to lethality in all eight mice. […] Similar leukopenia was found with paclitaxel. Some obstructive fecal mass in the large intestine was noted following Epo treatments in the preliminary study.

[2] = Hematology and blood chemistry toxicity in MX-1 bearing mice; details: day 30; dEpoB 25 mg/kg i.p. day 7-15 then 35 mg/kg day 17-25; Taxol 5 then 6 mg/kg; MX-1 bearing nude mice
[3] = test system: human ovarian UL3-C tumor; assay: UL3-C ovarian tumor xenograft
[4] = test system: MDR human mammary adenocarcinoma MCF-7/Adr xenograft; assay: in vivo; details: for toxicity: dEpoB 35 mg/kg Q2Dx5 i.p.
Method: DMSO was used as a vehicle for epothilones. Each mouse received ≦40 μL DMSO in all experiments.
Athymic nude mice (nu/nu) were used for MX-1 and MCF-7/Adr human mammary carcinoma xenografts. Mice were obtained from Taconic Laboratory Animals and Service (Germantown, N.Y.: outbred, Swiss background).

[5] = test system: CCRF-CEM/Taxol®; assay: CCRF-CEM/Taxol xenograft, i.v. 6 h infusion; type: in vivo, nude mice
Description: Treatment on days 6, 8, 10, 12 and 14.
Treatment on days 19, 21, 23, 25, 27, 39, 41, 43, 45 and 47.

[6] = test system: HT-29 Colon Adenocarcinoma; assay: HT-29 xenograft; type: in vivo, nude mice
[7] = test system: Human Lymphoblastic Leukemia CCRF-CEM; assay: CCRF-CEM xenograft in nude mice, i.v. 6 h infusion; type: in vivo
[8] = test system: DC-3F/ADII; assay: SRB cytotoxicity, DC-3F/ADII; type: cell-based, hamster; details: Mesocricetus auratus, DC3F
Summary of the method: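 Hamster lung fibroblast DC-3F sublines selected with actinomycin D (ADII moderate, ADX very strong MDR), maintained under selecting agent in RPMI 1640-10% FBS at 37° C. Monolayers exposed to six to seven drug concentrations in duplicate, TCA-fixed, stained with 0.4% SRB; absorbance 570 nm, analyzed by median-effect plot.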

[9] = UL3-C Ovary, dEpoB 30 mg/kg Q2D x 5, Taxol 15 mg/kg Q2D x 5
[10] = dEpoB 30, Taxol 20 mg/kg, i.v. infusions on day 19,21,23,25,27
[11] = 35 mg/kg i.p. Q2Dx5 from day 8, day 11
[12] = 35 mg/kg i.p. Q2Dx5 from day 8, day 13
[13] = 35 mg/kg i.p. Q2Dx5 from day 8, day 15
[14] = 35 mg/kg i.p. Q2Dx5 from day 8, day 17
[15] = CCRF/Taxol Leukemia, dEpoB 30 mg/kg Q2D x 6, Taxol 15 mg/kg Q2D x 6
[16] = dEpoB 30 mg/kg Q2D x 6, Taxol 15 mg/kg Q2D x 6
[17] = CCRF/CEM Leukemia, dEpoB 30 mg/kg Q2D x 5, Taxol 15 mg/kg Q2D x 5

With `C/C1=C/C[C@@H](/C(C)=C/c2csc(C)n2)OC(=O)C[C@H](O)C(C)(C)C(=O)[C@H](C)[C@@H](O)[C@@H](C)CCC1` [Desoxyepothilone B, desoxyepothilone B] the Died ([1]; 25 mg/kg QD × 4, 6 mice) was 0, the “Disappearance Duration” value ([1]; 25 mg/kg QD × 4, 6 mice) was 0 and the “Number of mice died” value ([1]; 25 mg/kg, 6 mice) was 0. For the same compound, the decrease in lymphocytes [1] was 43%, the body weight course ([1]; dEpoB 25 mg/kg daily i.p. for 4 days, listed as dEpoB) was “maintained approximately the same average body weight” and the body weight course ([1]; dEpoB 25 mg/kg daily i.p. for 4 days, listed as desoxyepothilone B) was “no reduction in average body weight”. The “mice died / survived” value ([1]; 6 mice) was “all six mice survived”, the “mice died / survived” value ([1]; 6 mice, listed as dEpoB) was “zero of six” and the GOT [2] was 296 U/L. The GPT [2] was 55 (n = 3) U/L, the “WBC Lymph” value [2] was 48% and the “WBC Neutrophils” value [2] was 48%. For the same compound, the “WBC Total” value [2] was 11.8 10^3/mm^3, the “Lowest Average Tumor Size (T/C)” value [3, 9] was 0.03 T/C and the “Tumor Disappearance” value [3, 9] was 0. The “Therapeutic Effects dEpoB vs Taxol” value ([3]; UL3-C Ovary, dEpoB 30 mg/kg Q2D x 5 vs Taxol 15 mg/kg Q2D x 5) was “≧”, the “Average Body Weight (change), Day 33” value [3, 10] was -2.7 g and the “Average Body Weight Change, Day 27” value [3, 10] was -1.5 g. For the same compound, the “Average Body Weight Change, Day 29” value [3, 10] was -4.0 g, the “Average Body Weight Change, Day 31” value [3, 10] was -3.6 g and the “Average Tumor Size (T/C), Day 27” value [3, 10] was 0.19 T/C. For the same compound, the “Average Tumor Size (T/C), Day 29” value [3, 10] was 0.13 T/C, the “Average Tumor Size (T/C), Day 31” value [3, 10] was 0.03 T/C and the “Average Tumor Size (T/C), Day 33” value [3, 10] was 0.03 T/C. The “Average Body Weight, Day 19” value ([3]; initial weight, dEpoB 30, Taxol 20 mg/kg, i.v. infusions on day 19,21,23,25,27) was 30.0 g, the “Toxicity Death” value ([4]; 35 mg/kg i.p. Q2Dx5 from day 8) was 0/8 and the “Average Body Weight Change” value [4, 11] was 0.3 g. For the same compound, the “Average Tumor Size (T/C)” value [4, 11] was 0.31**, the “Average Body Weight Change” value [4, 12] was “+0.7 g” and the “Average Tumor Size (T/C)” value [4, 12] was 0.27***. The “Average Body Weight Change” value [4, 13] was “+0.6 g”, the “Average Tumor Size (T/C)” value [4, 13] was 0.30*** and the “Average Body Weight Change” value [4, 14] was “+0.8 g”. For the same compound, the “Average Tumor Size (T/C)” value [4, 14] was 0.34*, the tumor size reduction ([4]; 35 mg/kg, day 17) was 66% and the therapeutic outcome ([4]; 6 hr i.v. infusion, Q2Dx5) was “far better than Taxol®, although Q2Dx5 did not achieve a cure”. For the same compound, the toxicity ([4]; listed as dEpoB) was “negligible toxicity”, the toxicity ([4]; listed as desoxyepothilone B) was “no reduction in body weight or apparent toxicity” and the “Average Body Weight (change), Day 14” value ([4]; mouse, in vivo) was -2.7 g. The “Average Body Weight (change), Day 16” value ([4]; mouse, in vivo) was -4.0 g, the “Average Body Weight (change), Day 18” value ([4]; mouse, in vivo) was -4.5 g and the “Average Body Weight, Day 8” value ([4]; mouse, in vivo) was 30.3 g. For the same compound, the “Average Tumor Size (T/C), Day 14” value ([4]; mouse, in vivo) was 0.16*** T/C, the “Average Tumor Size (T/C), Day 16” value ([4]; mouse, in vivo) was 0.15 T/C and the “Average Tumor Size (T/C), Day 18” value ([4]; mouse, in vivo) was 0.13*** T/C. The “Lowest Average Tumor Size (T/C)” value ([4]; mouse, in vivo) was 0.11 T/C, the “Therapeutic Effects dEpoB vs Taxol” value ([4]; mouse, in vivo) was “>>” and the Toxicity Death ([4]; mouse, in vivo) was 0/3. For the same compound, the “Tumor Disappearance” value ([4]; mouse, in vivo) was 0, the “Therapeutic effect Rank Order” value ([4]; mouse, in vivo, ip) was “dEpoB >> Camptothecin >” and the “Therapeutic effect Rank Order” value ([4]; mouse, in vivo, iv) was “dEpoB >> VP-16,”. The therapeutic outcome ([5]; 6 hr i.v. infusion) was “full cure”, the “Therapeutic effect Rank Order” value ([5]; CCRF-CEM/Taxol, i.v. infusion) was “dEpoB >>> Taxol ®” and the “Lowest Average Tumor Size (T/C)” value [5, 15] was 0 T/C. The “Tumor Disappearance” value [5, 15] was 3/3, the “Therapeutic Effects dEpoB vs Taxol” value ([5]; CCRF/Taxol Leukemia, dEpoB 30 mg/kg Q2D x 6 vs Taxol 15 mg/kg Q2D x 6) was “>>>” and the “Lowest Average Tumor Size (T/C)” value [6, 16] was 0.02 T/C. For the same compound, the “Tumor Disappearance” value [6, 16] was 0, the “Therapeutic Effects dEpoB vs Taxol” value ([6]; dEpoB 30 mg/kg Q2D x 6 vs Taxol 15 mg/kg Q2D x 6) was “≦” and the “Therapeutic effect Rank Order” value ([6]; i.v. infusion) was “Taxol ® ≧ dEpoB”. For the same compound, the “Therapeutic effect Rank Order” value ([7]; CCRF-CEM, i.v. infusion) was “dEpoB ≈ Taxol ®”, the “Lowest Average Tumor Size (T/C)” value [7, 17] was 0 T/C and the “Tumor Disappearance” value [7, 17] was 2/2. For the same compound, the “Therapeutic Effects dEpoB vs Taxol” value ([7]; CCRF/CEM Leukemia, dEpoB 30 mg/kg Q2D x 5 vs Taxol 15 mg/kg Q2D x 5) was “≅”.

With `C/C(=C\c1csc(C)n1)[C@@H]1C[C@@H]2O[C@]2(C)CCC[C@H](C)[C@H](O)[C@@H](C)C(=O)C(C)(C)[C@@H](O)CC(=O)O1` [Epothilone B, epothilone B] the Died ([1]; 0.6 mg/kg QD × 4, 8 mice) was 8, the “Disappearance Duration” value ([1]; 0.6 mg/kg QD × 4, 8 mice) was 8 and the “Number of mice died” value ([1]; 0.6 mg/kg, 8 mice) was 8*. For the same compound, the body weight course ([1]; EpoB 0.6 mg/kg QDx4 i.p.) was “steady decreases in body weight until death”, the decrease in lymphocytes [1] was 43% and the “mice died of toxicity” value ([1]; 8 mice) was “all eight and 8 of 8”. The “mice died of toxicity” value ([1]; 8 mice, listed as EpoB) was “all eight” and the “reduction in average body weight” value ([1]; epothilone B 0.6 mg/kg i.p. for 4 days) was 33%.

`CC[C@]1(O)C[C@@H]2CN(CCc3c([nH]c4ccccc34)[C@@](C(=O)OC)(c3cc4c(cc3OC)N(C)[C@H]3[C@@](O)(C(=O)OC)[C@H](OC(C)=O)[C@]5(CC)C=CCN6CC[C@]43[C@@H]65)C2)C1` [Vinblastine, Vinblastine sulfate] showed a pIC50 [8] of 7.10.

Source: patent US6603023B2 (priority 1996, dated 2003)
